Earlier results on 2 molecules are cited in patent US6680321B1, “Compounds with analgesic effect” (AstraZeneca Canada, Inc., priority 1995, dated 2004).

The conditions of data set [1]: in vivo.
The target of data set [2] is μ receptor (Homo sapiens, UniProt P35372).
Data set [3] has as its target δ receptor (Homo sapiens, UniProt P41143).

δ receptor, sequence (P41143 whole entry): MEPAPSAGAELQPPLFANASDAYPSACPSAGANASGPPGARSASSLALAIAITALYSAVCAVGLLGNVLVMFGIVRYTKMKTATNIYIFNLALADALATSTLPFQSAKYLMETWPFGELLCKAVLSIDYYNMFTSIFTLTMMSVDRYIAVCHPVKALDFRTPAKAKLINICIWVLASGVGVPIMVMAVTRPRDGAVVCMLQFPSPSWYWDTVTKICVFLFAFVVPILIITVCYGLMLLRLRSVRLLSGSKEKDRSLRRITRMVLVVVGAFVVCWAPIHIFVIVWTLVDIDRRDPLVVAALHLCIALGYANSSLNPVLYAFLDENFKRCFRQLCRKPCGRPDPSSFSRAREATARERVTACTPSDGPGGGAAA
μ receptor, sequence (P35372 whole entry): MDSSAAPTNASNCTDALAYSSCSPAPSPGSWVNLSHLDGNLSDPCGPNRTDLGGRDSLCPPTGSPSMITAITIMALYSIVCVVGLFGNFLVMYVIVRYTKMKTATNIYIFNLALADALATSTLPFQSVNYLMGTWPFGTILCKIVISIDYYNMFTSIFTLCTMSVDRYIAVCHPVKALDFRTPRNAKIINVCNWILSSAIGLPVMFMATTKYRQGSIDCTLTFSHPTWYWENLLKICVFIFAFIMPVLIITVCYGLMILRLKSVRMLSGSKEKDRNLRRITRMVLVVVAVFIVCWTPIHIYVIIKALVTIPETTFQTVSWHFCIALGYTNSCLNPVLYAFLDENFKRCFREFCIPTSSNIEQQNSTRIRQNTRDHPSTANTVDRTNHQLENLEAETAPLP

With `C=CCN1C[C@H](C)N([C@H](c2ccc(C(=O)N(CC)CC)cc2)c2cccc(O)c2)C[C@H]1C` [BW 373U86], the analgesic activity entry in data set [1] was “with analgesic activity”. For the same molecule, the “affinity for the μ receptor” value in data set [2] was “significant affinity”.

`Oc1ccc2c3c1O[C@H]1c4[nH]c5ccccc5c4C[C@@]4(O)[C@@H](C2)N(CC2CC2)CC[C@]314` [naltrindole]: in data set [1], the analgesic activity result is “no analgesic activity”. Besides, in data set [3], the “selectivity for the δ receptor vs μ′ receptor binding” value is under 10 fold.
